Experiment: In vitro stability of conjugates in mouse serum (LC-MS: succinimide ring hydrolysis, deconjugation)
Format: in vitro ADME
Settings: conjugates of the compound with anti-HER2 mAb2
Procedure: The stability of the bond formed between maleimide containing payloads and Cys residues of the antibody is enhanced by the hydrolysis of the succinimide ring formed in this reaction. The effects of succinimide ring hydrolysis on the stability of antibody conjugates prepared with agonist compounds of the invention were studied after in vitro incubation in mouse serum. Mass changes resulting from payload deconjugation and the hydrolysis of the succinimide ring of maleimide payloads conjugated to antibodies were monitored by LC-MS. The hydrolysis of the succinimide ring has been reported to be stimulated by certain conditions such as high pH, high temperature, or high salts (J. Am. Chem. Soc. 1955, 77: 3922; Biochemistry 1976, 15: 2836; Biochem. J. 1979, 179: 191-197; J Pharm Sci. 1984, 73:1767-1771; Bioorg. Med. Chem. Lett. 17: 6286-6289, 2007). To probe the in vitro stability of conjugates, anti-HER2 antibody mAb2 conjugates were incubated at 37° C. in 50-70% mouse serum. […] The light chain, heavy chain Fab, and heavy chain Fc fragments were then analyzed by ESI-MS. The relative populations of deconjugated antibody, conjugates with attached payload with hydrolyzed succinimide ring, and conjugates with attached payload with intact succinimide ring, were calculated from the relative MS intensities of the corresponding conjugate species. […]

conjugate stability (deconjugation, succinimide ring hydrolysis)	SMILES
improved conjugate stability	CCCCCNc1nc(N)nc2ccn(Cc3ccc(CN4CCN(CCN5C(=O)C=CC5=O)CC4)cc3OC)c12 [Compound C-5, 1-(2-(4-(4-((2-amino-4-(pentylamino)-5H-pyrrolo[3,2-d]pyrimidin-5-yl)methyl)-3-methoxybenzyl)piperazin-1-yl)ethyl)-1H-pyrrole-2,5-dione]
improved conjugate stability	CCCCCNc1nc(N)nc2ccn(Cc3ccc(CN4CCN(C(=O)CCOCCOCCNC(=O)CN5C(=O)C=CC5=O)CC4)cc3OC)c12 [Compound C-21, N-(2-(2-(3-(4-(4-((2-amino-4-(pentylamino)-5H-pyrrolo[3,2-d]pyrimidin-5-yl)methyl)-3-methoxybenzyl)piperazin-1-yl)-3-oxopropoxy)ethoxy)ethyl)-2-(2,5-dioxo-2,5-dihydro-1H-pyrrol-1-yl)acetamide]
